Patent US20240059703A1 (AMGEN INC., priority 2021, published 2024)
pIC50: −log10 of the molar value.

Columns and labels:
KRAS G12C = KRAS G12C (Homo sapiens (Human), UniProt P01116, C118A/G12C); assay: 2 h coupled exchange assay; assay type: biochemical; conditions: Avg 2 h Coupled exchange IC50, 2 h compound pre-incubation, SOS-mediated nucleotide exchange
Description: The term “2 h coupled exchange assay” or “20 h coupled exchange assay” as used herein refers to the assay described in the Section entitled “BIOLOGICAL EVALUATION.”

[1] = system: A549 (human lung carcinoma) cells; assay: Cell Viability Assay (CellTiter-Glo), A549; assay type: cell-based; conditions: Homo sapiens, A549, 72 h
Method in brief: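 Luminescent ATP read-out (CellTiter-Glo) after 72 h compound treatment of cells seeded overnight at 1.67E+04 cells/mL in RPMI 1640, 10% FBS; signal relative to DMSO, IC50 by 4-parameter logistic model.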

[2] = system: MIA PaCa-2 (human pancreatic carcinoma) cells; assay: Cell Viability Assay (CellTiter-Glo), MIA PaCa-2; assay type: cell-based; conditions: Homo sapiens, MIA PaCa-2, 72 h
Description: Serially-diluted compound or DMSO was added to the cells, and plates were incubated at 37° C., 5% CO2 for 72 h. Cell viability was measured using a CellTiter-Glo® Luminescent Cell Viability Assay kit (Promega) according to the manufacturer's protocol. The luminescence signal of treated samples was normalized to DMSO control, and data were analyzed using a 4-parameter logistic model to calculate IC50 values.

KRAS G12C, sequence (P01116 other isoform, or with tags, fused parts or gaps G12C/C118A): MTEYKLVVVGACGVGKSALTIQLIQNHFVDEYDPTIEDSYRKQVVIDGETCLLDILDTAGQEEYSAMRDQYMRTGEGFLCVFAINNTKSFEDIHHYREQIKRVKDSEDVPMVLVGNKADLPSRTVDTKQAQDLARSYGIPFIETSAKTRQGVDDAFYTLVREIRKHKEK

Structure (SMILES)	pIC50 (KRAS G12C)	pIC50 [1]	pIC50 [2]
C=CC(=O)N1CC2(CCN(c3nc4c(c(-c5cc(O)cc6ncccc56)c3C#N)C[C@H]3C[C@@H]4C3(C)C)C2)C1 [Example 2-42, (1R,9R)-6-(7-hydroxy-5-quinolinyl)-10,10-dimethyl-4-(2-(2-propenoyl)-2,6-diazaspiro[3,4]octan-6-yl)-3-azatricyclo[7.1.1.0^2,7]undeca-2,4,6-triene-5-carbonitrile]	7.55	< 5.30	6.76
C=CC(=O)N1CC2(CCN(c3nc4cc(OC)ccc4c(-c4c(C)ccc5[nH]ncc45)c3C)C2)C1 [Example 2-48, 1-(6-(7-methoxy-3-methyl-4-(5-methyl-1H-indazol-4-yl)-2-quinolinyl)-2,6-diazaspiro[3,4]octan-2-yl)-2-propen-1-one]	6.96	< 5.30	6.05
C=CC(=O)N1CC2(CCN(c3nc4cc(OC)ccc4c(-c4c(C)ccc5cn[nH]c45)c3C)C2)C1 [Example 2-49, 1-(6-(7-methoxy-3-methyl-4-(6-methyl-1H-indazol-7-yl)-2-quinolinyl)-2,6-diazaspiro[3.4]octan-2-yl)-2-propen-1-one]	6.49	< 5.30	5.92
C=CC(=O)N1CC2(CCN(c3nc4cc(OC)ccc4c(-c4c(C)ccc5cnn(C)c45)c3C)C2)C1 [Example 2-50, 1-(6-(4-(1,6-dimethyl-1H-indazol-7-yl)-7-methoxy-3-methyl-2-quinolinyl)-2,6-diazaspiro[3,4]octan-2-yl)-2-propen-1-one]	6.33	< 5.30	5.58
C=CC(=O)N1CC2(CCN(c3cc4c(c(-c5cc(O)cc6ccccc56)c3C#N)OCCC4)C2)C1 [Example 2-52, 8-(3-hydroxy-1-naphthalenyl)-6-(2-(2-propenoyl)-2,6-diazaspiro[3.4]octan-6-yl)-3,4-dihydro-2H-chromene-7-carbonitrile]	7.59	< 5.30	7.21
C=CC(=O)N1CC2(CCN(c3nc4c(c(-c5cc(O)ccc5C)c3C)CCC(C)(C)C4)C2)C1 [Example 2-62, 1-(6-(4-(5-hydroxy-2-methylphenyl)-3,7,7-trimethyl-5,6,7,8-tetrahydro-2-quinolinyl)-2,6-diazaspiro[3,4]octan-2-yl)-2-propen-1-one]	6.73	< 5.30	5.90
C=CC(=O)N1CC2(CCN(c3nc4c(c(-c5cc(O)ccc5Cl)c3C#N)C[C@H]3C[C@@H]4C3(C)C)C2)C1 [Example 2-64, (1R,9R)-6-(2-chloro-5-hydroxyphenyl)-10,10-dimethyl-4-(2-(2-propenoyl)-2,6-diazaspiro[3.4]octan-6-yl)-3-azatricyclo[7.1.1.0^2,7]undeca-2,4,6-triene-5-carbonitrile]	7.41	< 5.30	6.36
C=CC(=O)N1CC2(CCN(c3nc4c(c(-c5cc(O)ccc5F)c3C#N)C[C@H]3C[C@@H]4C3(C)C)C2)C1 [Example 2-66, (1R,9R)-6-(2-fluoro-5-hydroxyphenyl)-10,10-dimethyl-4-(2-(2-propenoyl)-2,6-diazaspiro[3.4]octan-6-yl)-3-azatricyclo[7.1.1.0^2,7]undeca-2,4,6-triene-5-carbonitrile]	7.05	< 5.30	6.13
C=CC(=O)N1CC2(CCN(c3nc4c(c(-c5cc(O)ccc5C)c3C#N)C[C@H]3C[C@@H]4C3(C)C)C2)C1 [Example 2-67, (1R,9R)-6-(5-hydroxy-2-methylphenyl)-10,10-dimethyl-4-(2-(2-propenoyl)-2,6-diazaspiro[3.4]octan-6-yl)-3-azatricyclo[7.1.1.0^2,7]undeca-2,4,6-triene-5-carbonitrile]	7.42	< 5.30	6.42
C=CC(=O)N1CC2(CCN(c3nc4c(c(-c5c(F)cccc5CO)c3C#N)C[C@H]3C[C@@H]4C3(C)C)C2)C1 [Example 2-73, (1R,9R)-6-(2-fluoro-6-(hydroxymethyl)phenyl)-10,10-dimethyl-4-(2-(2-propenoyl)-2,6-diazaspiro[3.4]octan-6-yl)-3-azatricyclo[7.1.1.0^2,7]undeca-2,4,6-triene-5-carbonitrile]	6.64	< 5.30	5.71
C=CC(=O)N1CC2(CCN(c3nc4c(c(-c5cc(O)ccc5C)c3Cl)COC(C)(C)C4)C2)C1 [Example 2-79, 1-(6-(3-chloro-4-(5-hydroxy-2-methylphenyl)-7,7-dimethyl-7,8-dihydro-5H-pyrano[4,3-b]pyridin-2-yl)-2,6-diazaspiro[3.4]octan-2-yl)-2-propen-1-one]	7.15	< 5.30	6.80
C=CC(=O)N1CC2(CCN(c3nc4c(c(-c5c(C)ccc6[nH]ncc56)c3Cl)COC(C)(C)C4)C2)C1 [Example 2-83, 1-(6-(3-chloro-7,7-dimethyl-4-(5-methyl-1H-indazol-4-yl)-7,8-dihydro-5H-pyrano[4,3-b]pyridin-2-yl)-2,6-diazaspiro[3.4]octan-2-yl)-2-propen-1-one]	7.48	4.91	7.77
C=CC(=O)N1CC2(CCN(c3cc4c(c(-c5c(C)ccc6[nH]ncc56)c3C#N)CCCC4)C2)C1 [Example 2-93, 1-(5-methyl-1H-indazol-4-yl)-3-(2-(2-propenoyl)-2,6-diazaspiro[3.4]octan-6-yl)-5,6,7,8-tetrahydro-2-naphthalenecarbonitrile]	7.72	5.69	7.15
C=CC(=O)N1CC2(CCN(c3cc4c(c(-c5c(C)ccc6[nH]ncc56)c3C#N)COCC4)C2)C1 [Example 2-95, 8-(5-methyl-1H-indazol-4-yl)-6-(2-(2-propenoyl)-2,6-diazaspiro[3.4]octan-6-yl)-3,4-dihydro-1H-2-benzopyran-7-carbonitrile]	7.06	< 5.30	6.10
C=CC(=O)N1CC2(CCN(c3cc4c(c(-c5c(C)ccc6cnn(C)c56)c3C#N)COCC4)C2)C1 [Example 2-96, 8-(1,6-dimethyl-1H-indazol-7-yl)-6-(2-(2-propenoyl)-2,6-diazaspiro[3,4]octan-6-yl)-3,4-dihydro-1H-2-benzopyran-7-carbonitrile]	6.63	< 5.30	6.61
C=CC(=O)N1CC2(CCN(c3cc4c(c(-c5c(C)ccc6cnn(C)c56)c3C#N)CCC(C)(C)C4)C2)C1 [Example 2-97, 1-(1,6-dimethyl-1H-indazol-7-yl)-6,6-dimethyl-3-(2-(2-propenoyl)-2,6-diazaspiro[3.4]octan-6-yl)-5,6,7,8-tetrahydro-2-naphthalenecarbonitrile]	7.09	< 5.30	6.68
C=CC(=O)N1CC2(CCN(c3cc4c(c(-c5cc(O)cc6ccccc56)c3C#N)CCC(C)(C)C4)C2)C1 [Example 2-98, 3′-hydroxy-6,6-dimethyl-3-(2-(2-propenoyl)-2,6-diazaspiro[3,4]octan-6-yl)-5,6,7,8-tetrahydro[1,1′-binaphthalene]-2-carbonitrile]	7.26	< 5.30	6.96
C=CC(=O)N1CC2(CCN(c3cc4c(c(-c5c(C)ccc6cnn(C)c56)c3C#N)OCCC4)C2)C1 [Example 2-101, 8-(1,6-dimethyl-1H-indazol-7-yl)-6-(2-(2-propenoyl)-2,6-diazaspiro[3.4]octan-6-yl)-3,4-dihydro-2H-chromene-7-carbonitrile]	7.55	4.87	7.43
